Laboratory results reported in patent US20190330224A1, “ACC INHIBITORS AND USES THEREOF” (Gilead Apollo, LLC, priority 2015, published 2019).
≈ marks a conversion by molar mass, not a printed value.

Tests used:
Human ACC2 = Human ACC2 (Homo sapiens, UniProt O00763); assay: In vitro ACC2 inhibition assay (ADP-Glo), human ACC2; type: biochemical; details: 5 nM ACC2, 20 μM ATP, 20 μM acetyl-CoA
Rhizoctonia solani (Rs) = assay: Growth inhibition assay of fungal pathogens, Rs; type: cell-based; details: 48 hours, read-out: Concentration at 90% Inhibition, Rs
[1] = compound concentration 10 ppm, foliar spray, evaluated 7 days after inoculation
Diplodia maydis (Dm) = assay: Growth inhibition assay of fungal pathogens, Dm; type: cell-based; details: Stenocarpella maydis; 48 hours; read-out: Concentration at 90% Inhibition, Dm
How it was run: (§1)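 Spores in 17% V8 medium exposed to compound at final 50, 10, 2 ppm or 2, 0.4, 0.08 ppm, with 2% DMSO. OD600 and visual ratings taken at 24 and 48 h, with blank subtracted. Percent growth inhibition derived from 48 h readings relative to 2% DMSO control.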

Septoria tritici (St) = assay: Growth inhibition assay of fungal pathogens, St; type: cell-based; details: Zymoseptoria tritici; 48 hours; read-out: Concentration at 90% Inhibition, St
How it was run: as §1

[2] = tested on: Blumeria graminis f sp. hordei; assay: Foliar protection test, barley powdery mildew control; type: in vivo, Blumeria graminis f sp. hordei on Hordeum vulgare cv. Perry; details: 168 h, compound concentration 50 ppm, foliar spray, evaluated 7 days after inoculation, read-out: Barley Powdery Mildew Control at 50 ppm
How it was run: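 Barley cv. Perry at first true leaf (6 days) sprayed to wetness on both leaf sides with compound in 5% acetone/0.005% Tween 80, typically at 200, 100, 50, 10 or 2 ppm. Inoculated 24 h later by shaking spores from colonized plants; kept at 20-22 °C, 70% RH. Mildew colonization scored 7 days later as percent control.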

C. albicans ATCC 90028 = assay: Anti-Fungal Activity Assay (broth microtiter MIC), C. albicans; type: cell-based, Candida albicans; details: Candida albicans, ATCC90028, 48 h, 3 replicates; MIC recorded at 48 h; read-out: MIC C. albicans ATCC 90028
How it was run: (§2)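 Candida strains were grown from frozen stock on Sabouraud dextrose agar overnight at 35° C, then suspended directly in RPMI 1640+MOPS and quantified against standard curves. Broth microdilution MIC plates followed CLSI M27-A3; MICs were read visually against growth control at 48 h, with a 24 h read added for soraphen.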

[3] = tested on: C. parapsilosis ATCC 22019; assay: Anti-Fungal Activity Assay (broth microtiter MIC), C. parapsilosis; type: cell-based, Candida parapsilosis; details: Lodderomyces parapsilosis, ATCC22019, 48 h, 3 replicates; MIC recorded at 48 h; read-out: MIC C. parapsilosis ATCC 22019
How it was run: as §2

Botrtyis cinerea (Bc) = assay: Growth inhibition assay of fungal pathogens, Bc; type: cell-based; details: 48 hours; read-out: Concentration at 90% Inhibition, Bc
How it was run: as §1

Fungal ACC2 = Fungal ACC2 (UniProt Q00955); details: read-out: Fungal ACC2 (IC50, in vitro ACC2 inhibition)
[4] = tested on: Collectotrichum graminicola (Cg); assay: Growth inhibition assay of fungal pathogens, Cg; type: cell-based; details: 48 hours; read-out: Concentration at 90% Inhibition, Cg
How it was run: as §1

[5] = tested on: Fusarium virguliforme (Fv); assay: Growth inhibition assay of fungal pathogens, Fv; type: cell-based; details: 48 hours, read-out: Concentration at 90% Inhibition, Fv
How it was run: as §1

C. krusei ATCC 6258 = assay: Anti-Fungal Activity Assay (broth microtiter MIC), C. krusei; type: cell-based, Candida krusei; details: Pichia kudriavzevii, ATCC6258, 48 h, 3 replicates; MIC recorded at 48 h; read-out: MIC C. krusei ATCC 6258
How it was run: as §2

[6] = tested on: Phytophthora capsici (Pc); assay: Growth inhibition assay of fungal pathogens, Pc; type: cell-based; details: 48 hours, read-out: Concentration at 90% Inhibition, Pc
How it was run: as §1

[7] = tested on: Fusarium moniliforme (Fm); assay: Growth inhibition assay of fungal pathogens, Fm; type: cell-based; details: Fusarium verticillioides; 48 hours; read-out: Concentration at 90% Inhibition, Fm
How it was run: as §1

Sequence of Human ACC2 (O00763 whole entry): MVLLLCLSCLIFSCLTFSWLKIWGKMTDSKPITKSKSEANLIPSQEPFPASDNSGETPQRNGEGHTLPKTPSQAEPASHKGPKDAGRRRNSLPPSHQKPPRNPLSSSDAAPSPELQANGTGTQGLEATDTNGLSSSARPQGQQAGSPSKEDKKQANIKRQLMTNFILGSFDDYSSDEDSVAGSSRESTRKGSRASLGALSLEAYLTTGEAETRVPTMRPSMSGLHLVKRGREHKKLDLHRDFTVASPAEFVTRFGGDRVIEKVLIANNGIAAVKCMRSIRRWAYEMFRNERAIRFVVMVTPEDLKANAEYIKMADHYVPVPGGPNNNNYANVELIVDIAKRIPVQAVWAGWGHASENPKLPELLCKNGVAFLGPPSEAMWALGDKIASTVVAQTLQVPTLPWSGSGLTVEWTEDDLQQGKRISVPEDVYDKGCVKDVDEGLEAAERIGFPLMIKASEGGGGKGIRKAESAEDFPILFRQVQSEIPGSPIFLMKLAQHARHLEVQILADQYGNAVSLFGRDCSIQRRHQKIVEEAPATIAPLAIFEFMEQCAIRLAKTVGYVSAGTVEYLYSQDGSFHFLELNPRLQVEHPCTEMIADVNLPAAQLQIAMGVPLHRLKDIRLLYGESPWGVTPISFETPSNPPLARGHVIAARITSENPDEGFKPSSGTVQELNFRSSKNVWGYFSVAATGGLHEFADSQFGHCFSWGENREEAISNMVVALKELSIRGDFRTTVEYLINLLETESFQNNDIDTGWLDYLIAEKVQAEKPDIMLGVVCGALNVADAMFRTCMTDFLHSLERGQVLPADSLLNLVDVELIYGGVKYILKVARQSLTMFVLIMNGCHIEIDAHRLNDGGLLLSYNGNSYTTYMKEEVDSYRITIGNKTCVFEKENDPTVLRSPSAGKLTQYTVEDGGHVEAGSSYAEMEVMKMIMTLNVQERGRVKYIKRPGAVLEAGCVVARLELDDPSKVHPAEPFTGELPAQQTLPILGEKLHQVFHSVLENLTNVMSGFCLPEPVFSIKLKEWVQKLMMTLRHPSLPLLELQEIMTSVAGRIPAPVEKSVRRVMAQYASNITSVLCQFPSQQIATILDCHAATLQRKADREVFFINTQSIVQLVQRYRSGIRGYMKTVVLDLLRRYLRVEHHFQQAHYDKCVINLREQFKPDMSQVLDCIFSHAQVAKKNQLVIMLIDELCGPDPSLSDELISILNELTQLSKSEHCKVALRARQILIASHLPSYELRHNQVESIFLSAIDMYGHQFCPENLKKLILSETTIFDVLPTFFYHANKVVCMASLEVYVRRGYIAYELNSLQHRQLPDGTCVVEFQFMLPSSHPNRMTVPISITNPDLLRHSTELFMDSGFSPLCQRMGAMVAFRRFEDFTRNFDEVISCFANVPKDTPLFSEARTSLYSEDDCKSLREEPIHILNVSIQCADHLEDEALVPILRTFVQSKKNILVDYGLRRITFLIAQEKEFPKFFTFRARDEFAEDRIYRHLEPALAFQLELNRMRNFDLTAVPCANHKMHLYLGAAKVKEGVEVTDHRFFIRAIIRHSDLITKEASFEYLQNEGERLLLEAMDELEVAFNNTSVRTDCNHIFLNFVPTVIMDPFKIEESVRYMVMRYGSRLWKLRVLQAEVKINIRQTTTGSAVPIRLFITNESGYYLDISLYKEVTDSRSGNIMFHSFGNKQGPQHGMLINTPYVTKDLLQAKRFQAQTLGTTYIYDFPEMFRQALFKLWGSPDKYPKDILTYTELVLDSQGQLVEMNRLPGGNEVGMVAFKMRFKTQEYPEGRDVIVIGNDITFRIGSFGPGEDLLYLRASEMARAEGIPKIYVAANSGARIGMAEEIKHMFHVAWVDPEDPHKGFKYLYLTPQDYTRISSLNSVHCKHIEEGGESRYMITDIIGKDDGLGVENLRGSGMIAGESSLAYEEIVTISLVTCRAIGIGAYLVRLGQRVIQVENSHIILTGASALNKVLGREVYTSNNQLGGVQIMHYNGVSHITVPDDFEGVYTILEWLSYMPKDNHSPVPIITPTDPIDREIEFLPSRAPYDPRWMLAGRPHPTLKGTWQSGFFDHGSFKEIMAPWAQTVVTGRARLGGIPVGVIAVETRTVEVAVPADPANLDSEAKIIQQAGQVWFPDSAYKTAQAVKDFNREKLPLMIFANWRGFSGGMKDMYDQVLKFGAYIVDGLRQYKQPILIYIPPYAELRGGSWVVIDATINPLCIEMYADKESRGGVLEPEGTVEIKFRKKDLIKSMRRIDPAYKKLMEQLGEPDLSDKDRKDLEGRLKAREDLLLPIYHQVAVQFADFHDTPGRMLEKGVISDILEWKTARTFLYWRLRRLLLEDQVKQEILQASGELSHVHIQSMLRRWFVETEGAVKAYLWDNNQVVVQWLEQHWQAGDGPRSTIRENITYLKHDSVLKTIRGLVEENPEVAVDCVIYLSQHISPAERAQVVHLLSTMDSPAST
Sequence of Fungal ACC2 (Q00955 whole entry): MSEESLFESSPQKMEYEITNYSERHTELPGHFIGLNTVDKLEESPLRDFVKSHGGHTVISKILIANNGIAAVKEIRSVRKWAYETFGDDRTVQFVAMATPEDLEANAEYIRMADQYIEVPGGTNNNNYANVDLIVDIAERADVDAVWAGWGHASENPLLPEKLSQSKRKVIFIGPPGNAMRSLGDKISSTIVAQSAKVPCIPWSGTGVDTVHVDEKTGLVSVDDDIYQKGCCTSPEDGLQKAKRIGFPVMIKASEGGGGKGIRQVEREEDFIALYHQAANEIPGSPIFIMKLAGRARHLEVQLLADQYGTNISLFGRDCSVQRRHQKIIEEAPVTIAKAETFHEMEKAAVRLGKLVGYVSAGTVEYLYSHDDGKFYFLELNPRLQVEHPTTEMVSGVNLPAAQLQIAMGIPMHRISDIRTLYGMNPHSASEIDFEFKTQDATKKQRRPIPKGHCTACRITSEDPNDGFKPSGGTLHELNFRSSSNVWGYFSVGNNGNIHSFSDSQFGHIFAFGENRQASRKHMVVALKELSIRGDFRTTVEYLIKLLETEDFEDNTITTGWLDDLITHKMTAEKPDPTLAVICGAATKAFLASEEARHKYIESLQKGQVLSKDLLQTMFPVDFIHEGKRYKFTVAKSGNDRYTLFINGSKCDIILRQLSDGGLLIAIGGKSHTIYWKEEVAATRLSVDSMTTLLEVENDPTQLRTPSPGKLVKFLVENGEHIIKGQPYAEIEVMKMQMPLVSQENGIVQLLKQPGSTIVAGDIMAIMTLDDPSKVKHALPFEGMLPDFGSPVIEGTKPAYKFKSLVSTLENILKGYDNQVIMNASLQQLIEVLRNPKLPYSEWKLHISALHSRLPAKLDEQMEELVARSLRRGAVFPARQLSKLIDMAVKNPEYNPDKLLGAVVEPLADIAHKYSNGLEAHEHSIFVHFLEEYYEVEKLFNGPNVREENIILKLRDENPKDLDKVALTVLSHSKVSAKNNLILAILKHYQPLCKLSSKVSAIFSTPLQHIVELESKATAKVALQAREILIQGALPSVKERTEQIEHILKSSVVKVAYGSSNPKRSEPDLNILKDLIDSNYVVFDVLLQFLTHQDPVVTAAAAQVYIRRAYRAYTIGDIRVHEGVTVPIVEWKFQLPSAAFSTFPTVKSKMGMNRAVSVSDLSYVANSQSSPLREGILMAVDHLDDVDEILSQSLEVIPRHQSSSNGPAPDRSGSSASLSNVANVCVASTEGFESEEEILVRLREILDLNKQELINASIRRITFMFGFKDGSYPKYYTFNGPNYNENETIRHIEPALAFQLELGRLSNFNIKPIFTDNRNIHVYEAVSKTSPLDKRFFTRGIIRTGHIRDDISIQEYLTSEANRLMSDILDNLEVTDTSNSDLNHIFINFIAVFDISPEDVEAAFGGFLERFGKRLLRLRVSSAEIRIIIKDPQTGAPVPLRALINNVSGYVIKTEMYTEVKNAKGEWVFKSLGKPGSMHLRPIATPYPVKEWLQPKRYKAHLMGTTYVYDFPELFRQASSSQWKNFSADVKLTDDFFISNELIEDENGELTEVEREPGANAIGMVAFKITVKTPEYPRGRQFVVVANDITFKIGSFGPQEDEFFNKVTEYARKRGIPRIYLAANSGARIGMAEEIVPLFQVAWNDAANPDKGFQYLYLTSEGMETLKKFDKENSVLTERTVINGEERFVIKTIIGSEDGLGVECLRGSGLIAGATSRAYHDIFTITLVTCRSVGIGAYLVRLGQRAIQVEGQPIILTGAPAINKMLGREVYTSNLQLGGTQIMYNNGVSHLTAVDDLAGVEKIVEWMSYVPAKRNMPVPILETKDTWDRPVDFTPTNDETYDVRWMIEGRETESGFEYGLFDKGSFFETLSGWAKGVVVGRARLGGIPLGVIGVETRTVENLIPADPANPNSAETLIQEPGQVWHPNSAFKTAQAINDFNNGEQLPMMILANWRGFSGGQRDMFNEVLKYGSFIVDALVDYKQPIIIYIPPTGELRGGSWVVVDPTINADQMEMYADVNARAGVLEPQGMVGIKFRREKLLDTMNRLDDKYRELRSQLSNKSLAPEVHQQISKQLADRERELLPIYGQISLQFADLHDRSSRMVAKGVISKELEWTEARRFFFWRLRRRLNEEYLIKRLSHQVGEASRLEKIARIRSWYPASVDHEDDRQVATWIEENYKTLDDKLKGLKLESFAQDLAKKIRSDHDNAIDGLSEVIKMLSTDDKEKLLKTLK

Compound	IC50 (Human ACC2)	IC90 (Rhizoctonia solani (Rs))	Barley Powdery Mildew Control at 10 ppm [1]	IC90 (Diplodia maydis (Dm))	IC90 (Septoria tritici (St))	pest or weed control at 50 ppm [2]	MIC (C. albicans ATCC 90028)	MIC [3]	IC90 (Botrtyis cinerea (Bc))	IC50 (Fungal ACC2)	IC90 [4]	IC90 [5]	MIC (C. krusei ATCC 6258)	IC90 [6]	IC90 [7]
COCCO[C@@H](Cn1c(=O)n([C@@H]2CCCN(C)C2=O)c(=O)c2c(C)c(-n3nccn3)sc21)c1cc(F)ccc1OC [Compound I-32, 1-((R)-2-(5-fluoro-2-methoxyphenyl)-2-(2-methoxy-ethoxy)ethyl)-5-methyl-3-((R)-1-methyl-2-oxopiperidin-3-yl)-6-(2H-1,2,3-triazol-2-yl)thieno[2,3-d]pyrimidine-2,4(1H,3H)-dione]	10 to 100 nM	> 50 µg/mL	C (provided a compound having from 25 to 49% control of barley powdery mildew)	> 50 µg/mL	> 50 µg/mL	70 to 84%	2.1 to 4 µg/mL (≈ 3.58 to 6.82 µM)	2.1 to 4 µg/mL (≈ 3.58 to 6.82 µM)	10 µg/mL (≈ 17 µM)	0.7 to 2 nM	> 50 µg/mL	> 50 µg/mL	2.1 to 4 µg/mL (≈ 3.58 to 6.82 µM)	> 50 µg/mL	2 µg/mL (≈ 3.41 µM)
COCCO[C@@H](Cn1c(=O)n([C@@H]2CCNC2=O)c(=O)c2c(C)c(-n3cccn3)sc21)c1cc(F)ccc1OC [Compound I-42, 1-((R)-2-(5-fluoro-2-methoxyphenyl)-2-(2-methoxy-ethoxy)ethyl)-5-methyl-3-((R)-2-oxopyrrolidin-3-yl)-6-(1H-pyrazol-1-yl)thieno[2,3-d]pyrimidine-2,4(1H,3H)-dione]	10 to 100 nM	> 50 µg/mL	D (provided a compound having <25% control of barley powdery mildew)	> 50 µg/mL	> 50 µg/mL	25 to 49%	2.1 to 4 µg/mL (≈ 3.77 to 7.17 µM)	2.1 to 4 µg/mL (≈ 3.77 to 7.17 µM)	> 50 µg/mL	2 to 10 nM	> 50 µg/mL	> 50 µg/mL	2.1 to 4 µg/mL (≈ 3.77 to 7.17 µM)	> 50 µg/mL	> 50 µg/mL
COCCO[C@@H](Cn1c(=O)n([C@@H]2CCN(C)C2=O)c(=O)c2c(C)c(-n3cccn3)sc21)c1cc(F)ccc1OC [Compound I-44, 1-((R)-2-(5-fluoro-2-methoxyphenyl)-2-(2-methoxy-ethoxy)ethyl)-5-methyl-3-((R)-1-methyl-2-oxopyrrolidin-3-yl)-6-(1H-pyrazol-1-yl)thieno[2,3-d]pyrimidine-2,4(1H,3H)-dione]	10 to 100 nM	> 50 µg/mL	D (provided a compound having <25% control of barley powdery mildew)	> 50 µg/mL	> 50 µg/mL	70 to 84%	2.1 to 4 µg/mL (≈ 3.67 to 7 µM)	2.1 to 4 µg/mL (≈ 3.67 to 7 µM)	> 50 µg/mL	2 to 10 nM	> 50 µg/mL	> 50 µg/mL	2.1 to 4 µg/mL (≈ 3.67 to 7 µM)	> 50 µg/mL	10 µg/mL (≈ 17.5 µM)
COCCO[C@@H](Cn1c(=O)n([C@H]2CCCNC2=O)c(=O)c2c(C)c(-n3cccn3)sc21)c1cc(F)ccc1OC [Compound I-45, 1-((R)-2-(5-fluoro-2-methoxyphenyl)-2-(2-methoxy-ethoxy)ethyl)-5-methyl-3-((S)-2-oxopiperidin-3-yl)-6-(I H-pyrazol-1-yl)thieno[2,3-d]pyrimidine-2,4(1H,3H)-dione]	10 to 100 nM	> 50 µg/mL	D (provided a compound having <25% control of barley powdery mildew)	> 50 µg/mL	> 50 µg/mL	50 to 69%	2.1 to 4 µg/mL (≈ 3.67 to 7 µM)	2.1 to 4 µg/mL (≈ 3.67 to 7 µM)	> 50 µg/mL	2 to 10 nM	> 50 µg/mL	> 50 µg/mL	2.1 to 4 µg/mL (≈ 3.67 to 7 µM)	> 50 µg/mL	> 50 µg/mL
COCCO[C@@H](Cn1c(=O)n([C@@H]2CCCNC2=O)c(=O)c2c(C)c(-n3cccn3)sc21)c1cc(F)ccc1OC [Compound I-46, 1-((R)-2-(5-fluoro-2-methoxyphenyl)-22-(2-methoxy-ethoxy)ethyl)-5-methyl-3-((R)-2-oxopiperidin-3-yl)-6-(I H-pyrazol-1-yl)thieno[2,3-d]pyrimidine-2,4(1H,3H)-dione]	100 to 1000 nM	> 50 µg/mL	D (provided a compound having <25% control of barley powdery mildew)	> 50 µg/mL	> 50 µg/mL	50 to 69%	2.1 to 4 µg/mL (≈ 3.67 to 7 µM)	2.1 to 4 µg/mL (≈ 3.67 to 7 µM)	> 50 µg/mL	10 to 100 nM	> 50 µg/mL	> 50 µg/mL	2.1 to 4 µg/mL (≈ 3.67 to 7 µM)	> 50 µg/mL	> 50 µg/mL
COCCO[C@@H](Cn1c(=O)n([C@H]2CCCN(C)C2=O)c(=O)c2c(C)c(-n3cccn3)sc21)c1cc(F)ccc1OC [Compound I-47, 1-((R)-2-(5-fluoro-2-methoxyphenyl)-2-(2-methoxy-ethoxy)ethyl)-5-methyl-3-((S)-1-methyl-2-oxopiperidin-3-yl)-6-(I H-pyrazol-1-yl)thieno[2,3-d]pyrimidine-2,4(1H,3H)-dione]	100 to 1000 nM	> 50 µg/mL	D (provided a compound having <25% control of barley powdery mildew)	> 50 µg/mL	> 50 µg/mL	50 to 69%	2.1 to 4 µg/mL (≈ 3.59 to 6.83 µM)	2.1 to 4 µg/mL (≈ 3.59 to 6.83 µM)	> 50 µg/mL	2 to 10 nM	> 50 µg/mL	> 50 µg/mL	2.1 to 4 µg/mL (≈ 3.59 to 6.83 µM)	> 50 µg/mL	> 50 µg/mL
COCCO[C@@H](Cn1c(=O)n([C@@H]2CCCN(C)C2=O)c(=O)c2c(C)c(-n3cccn3)sc21)c1cc(F)ccc1OC [Compound I-48, 1-((R)-2-(5-fluoro-2-methoxyphenyl)-2-(2-methoxy-ethoxy)ethyl)-5-methyl-3-((R)-1-methyl-2-oxopiperidin-3-yl)-6-(1H-pyrazol-1-yl)thieno[2,3-d]pyrimidine-2,4(1H,3H)-dione]	100 to 1000 nM	> 50 µg/mL	C (provided a compound having from 25 to 49% control of barley powdery mildew)	> 50 µg/mL	> 50 µg/mL	50 to 69%	2.1 to 4 µg/mL (≈ 3.59 to 6.83 µM)	2.1 to 4 µg/mL (≈ 3.59 to 6.83 µM)	> 50 µg/mL	10 to 100 nM	> 50 µg/mL	> 50 µg/mL	2.1 to 4 µg/mL (≈ 3.59 to 6.83 µM)	> 50 µg/mL	> 50 µg/mL
COc1ccc(F)cc1[C@H](Cn1c(=O)n([C@H]2CCCNC2=O)c(=O)c2c(C)c(-n3nccn3)sc21)OCCO [Compound I-70, 1-((R)-2-(5-fluoro-2-methoxyphenyl)-2-(2-hydroxy-ethoxy)ethyl)-5-methyl-3-((S)-2-oxopiperidin-3-yl)-6-(2H-1,2,3-triazol-2-yl)thieno[2,3-d]pyrimidine-2,4(1H,3H)-dione]	10 to 100 nM	10 µg/mL (≈ 17.9 µM)	D (provided a compound having <25% control of barley powdery mildew)	> 50 µg/mL	> 50 µg/mL	50 to 69%	2.1 to 4 µg/mL (≈ 3.76 to 7.16 µM)	2.1 to 4 µg/mL (≈ 3.76 to 7.16 µM)	2 µg/mL (≈ 3.58 µM)	0.7 to 2 nM	10 µg/mL (≈ 17.9 µM)	2 µg/mL (≈ 3.58 µM)	2.1 to 4 µg/mL (≈ 3.76 to 7.16 µM)	> 50 µg/mL	2 µg/mL (≈ 3.58 µM)
COc1ccc(F)cc1[C@H](Cn1c(=O)n([C@@H]2CCCNC2=O)c(=O)c2c(C)c(-n3nccn3)sc21)OCCO [Compound I-71, 1-((R)-2-(5-fluoro-2-methoxyphenyl)-2-(2-hydroxy-ethoxy)ethyl)-5-methyl-3-((R)-2-oxopiperidin-3-yl)-6-(2H-1,2,3-triazol-2-yl)thieno[2,3-d]pyrimidine-2,4(1H,3H)-dione]	2 to 10 nM	2 µg/mL (≈ 3.58 µM)	D (provided a compound having <25% control of barley powdery mildew)	> 50 µg/mL	> 50 µg/mL	50 to 69%	2.1 to 4 µg/mL (≈ 3.76 to 7.16 µM)	2.1 to 4 µg/mL (≈ 3.76 to 7.16 µM)	2 µg/mL (≈ 3.58 µM)	0.7 to 2 nM	10 µg/mL (≈ 17.9 µM)	2 µg/mL (≈ 3.58 µM)	2.1 to 4 µg/mL (≈ 3.76 to 7.16 µM)	> 50 µg/mL	2 µg/mL (≈ 3.58 µM)
